Results as given in patent US10689343B2, “Inhibitors of tryptophan 2,3-dioxygenase” (NETHERLANDS TRANSLATIONAL RESEARCH CENTER B.V., priority 2016, dated 2020).
“And” between values parts separate entries of the source, which are not always exact repeats. Identical values can stand only once.

Assays:
[1] = biological target: T1, Recombinant TDO (Homo sapiens, UniProt P48775); test: Biochemical assay for TDO (NFK GreenScreen); settings: 50 nM TDO, 200 μM L-tryptophan
T1 construct: Recombinant TDO (Seegers, N., et al.) and all other assay components were diluted in TDO reaction buffer
T1 sequence (P48775 whole entry): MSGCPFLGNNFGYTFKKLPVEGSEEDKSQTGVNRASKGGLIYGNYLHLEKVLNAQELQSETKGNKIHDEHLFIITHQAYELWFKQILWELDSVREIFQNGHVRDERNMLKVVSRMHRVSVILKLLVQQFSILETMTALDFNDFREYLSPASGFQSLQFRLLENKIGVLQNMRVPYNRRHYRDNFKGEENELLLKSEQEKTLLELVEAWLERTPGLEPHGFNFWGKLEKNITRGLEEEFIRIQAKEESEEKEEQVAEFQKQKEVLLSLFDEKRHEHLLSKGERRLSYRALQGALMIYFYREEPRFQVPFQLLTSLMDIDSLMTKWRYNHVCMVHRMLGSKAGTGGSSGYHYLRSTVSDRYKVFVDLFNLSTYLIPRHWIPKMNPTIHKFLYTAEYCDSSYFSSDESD
Outline: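 Recombinant human TDO (50 nM) preincubated with compound 60 min at room temperature in 100 mM NaH2PO4 pH 7.0, 0.02% Tween-20, with ascorbic acid. Reaction then run 15 min with 200 μM L-tryptophan (final), 0.3% DMSO. NFK product detected by NFK Green fluorescence after 3 h at 37° C; IC50 derived.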

[2] = biological target: CYP3A4 (Homo sapiens, UniProt P08684); test: P450-Glo CYP3A4 luciferin isopropylacetal (Luc-IP) assay
CYP3A4, sequence (P08684 whole entry): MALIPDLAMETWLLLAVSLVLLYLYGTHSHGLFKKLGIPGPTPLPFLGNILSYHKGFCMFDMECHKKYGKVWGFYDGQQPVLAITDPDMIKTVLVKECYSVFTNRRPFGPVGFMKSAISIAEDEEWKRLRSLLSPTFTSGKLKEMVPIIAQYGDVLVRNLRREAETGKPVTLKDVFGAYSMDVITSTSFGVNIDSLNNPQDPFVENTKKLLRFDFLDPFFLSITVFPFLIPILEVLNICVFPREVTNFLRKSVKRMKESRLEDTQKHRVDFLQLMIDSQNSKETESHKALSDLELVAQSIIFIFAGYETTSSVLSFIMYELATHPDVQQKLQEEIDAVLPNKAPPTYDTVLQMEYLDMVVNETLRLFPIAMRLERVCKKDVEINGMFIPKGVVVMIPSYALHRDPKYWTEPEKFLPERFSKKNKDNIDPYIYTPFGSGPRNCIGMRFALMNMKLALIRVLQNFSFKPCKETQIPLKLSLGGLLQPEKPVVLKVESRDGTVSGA

[3] = biological target: CYP2D6 (Homo sapiens, UniProt P10635); test: P450-Glo CYP2D6 Luc-IP assay
CYP2D6, sequence (P10635 whole entry): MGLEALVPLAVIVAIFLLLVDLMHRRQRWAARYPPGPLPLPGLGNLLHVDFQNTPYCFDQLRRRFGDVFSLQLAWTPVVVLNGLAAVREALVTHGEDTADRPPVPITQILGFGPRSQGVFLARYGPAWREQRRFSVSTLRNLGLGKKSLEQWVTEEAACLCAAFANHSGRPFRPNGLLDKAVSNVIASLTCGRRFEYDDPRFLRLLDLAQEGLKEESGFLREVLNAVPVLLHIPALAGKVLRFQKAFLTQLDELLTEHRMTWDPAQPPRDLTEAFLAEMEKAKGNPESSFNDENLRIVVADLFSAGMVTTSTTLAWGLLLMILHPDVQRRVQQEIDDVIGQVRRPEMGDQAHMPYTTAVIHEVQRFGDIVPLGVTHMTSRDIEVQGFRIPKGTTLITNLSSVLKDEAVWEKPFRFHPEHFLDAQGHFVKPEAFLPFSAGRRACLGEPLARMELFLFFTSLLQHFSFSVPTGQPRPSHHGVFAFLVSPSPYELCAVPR

[4] = biological target: T2, TDO in SW48 colorectal carcinoma cells (Homo sapiens, UniProt P48775); test: Cell-based assay for TDO in SW48 colorectal carcinoma cells (NFK GreenScreen); settings: 18 hours with L-tryptophan, read-out: IC50 on TDO in cells
T2 construct: Endogenous expression of TDO has been determined in a variety of cancer cell lines; host or cells: SW48 colorectal carcinoma cells
T2 sequence (P48775 whole entry): as the sequence (P48775 whole entry) above

Compound	IC50 [1] [nM]	IC50 [2] [nM]	IC50 [3] [nM]	IC50 [4]
O=C(Nc1ccc(-c2c[nH]c3cc(F)ccc23)cc1)C1CC12CCNCC2 (centres unmarked) [Example 97, N-[4-(6-Fluoro-1H-indol-3-yl)phenyl]-6-azaspiro[2.5]octane-2-carboxamide]	< 1000	> 10000	> 10000	≤ 500 nM and 200 to 500 nM
CC(O)C(C)NC(=O)c1ccc(-c2c[nH]c3cc(F)ccc23)cc1 (centres unmarked) [Example 21, 4-(6-Fluoro-1H-indol-3-yl)-N-(2-hydroxy-1-methyl-propyl)benzamide]	< 1000	> 10000	> 10000	≤ 200 nM
CC(C)NC(=O)c1ccc(-c2c[nH]c3cc(F)ccc23)cc1 [Example 2, 4-(6-Fluoro-1H-indol-3-yl)-N-isopropyl-benzamide]	< 1000	> 10000	> 10000	≤ 200 nM
CCN(CC)CC(C)NC(=O)c1ccc(-c2c[nH]c3cc(F)ccc23)cc1 (centres unmarked) [Example 23, N-[2-(diethylamino)-1-methyl-ethyl]-4-(6-fluoro-1H-indol-3-yl)benzamide]	< 1000	5000 to 10000	> 10000	≤ 200 nM
O=C(N[C@@H]1CCCNC1)c1ccc(-c2c[nH]c3cc(F)ccc23)cc1 [Example 36, 4-(6-Fluoro-1H-indol-3-yl)-N-[(3R)-3-piperidyl]benzamide]	< 1000	> 10000	> 10000	≤ 500 nM and 200 to 500 nM
CC(=O)Nc1ccc(-c2c[nH]c3cc(F)ccc23)cc1 [Example 4, N-[4-(6-Fluoro-1H-indol-3-yl)phenyl]acetamide]	< 1000	> 10000	> 10000	≤ 500 nM and 200 to 500 nM

The next lines start with the values.

IC50 [1] [nM]	IC50 [2] [nM]	IC50 [3] [nM]	IC50 [4]	Compound
1000 to 5000	> 10000	> 10000	≤ 500 nM and 200 to 500 nM	CC(=O)NCCNC(=O)c1ccc(-c2c[nH]c3cc(F)ccc23)cc1 [Example 113, N-(2-acetamidoethyl)-4-(6-fluoro-1H-indol-3-yl)benzamide]
< 1000	> 10000	> 10000	≤ 500 nM and 200 to 500 nM	COc1cc(-c2c[nH]c3cc(F)ccc23)ccc1C(=O)N[C@@H](C)CO [Example 136, 4-(6-Fluoro-1H-indol-3-yl)-N-[(1S)-2-hydroxy-1-methyl-ethyl]-2-methoxy-benzamide]
< 1000	> 10000	> 10000	≤ 500 nM and 200 to 500 nM	O=C(NC[C@@H]1CCNC1)c1ccc(-c2c[nH]c3cc(F)ccc23)cc1 [Example 95, 4-(6-Fluoro-1H-indol-3-yl)-N-[[(3R)-pyrrolidin-3-yl]methyl]benzamide]
< 1000	5000 to 10000	> 10000	≤ 500 nM and 200 to 500 nM	O=C(CC1CNCCO1)Nc1ccc(-c2c[nH]c3cc(F)ccc23)cc1 (centres unmarked) [Example 102, N-[4-(6-fluoro-1H-indol-3-yl)phenyl]-2-morpholin-2-yl-acetamide]
< 1000	5000 to 10000	> 10000	≤ 500 nM and 200 to 500 nM	O=C(NCC1(O)CCC1)c1ccc(-c2c[nH]c3cc(F)ccc23)cc1 [Example 62, 4-(6-Fluoro-1H-indol-3-yl)-N-[(1-hydroxycyclobutyl)methyl]benzamide]
< 1000	5000 to 10000	> 10000	≤ 500 nM and 200 to 500 nM	COC(=O)C(NC(=O)c1ccc(-c2c[nH]c3cc(F)ccc23)cc1)C1CCNCC1 (centres unmarked) [Example 122, Methyl 2-[[4-(6-fluoro-1H-indol-3-yl)benzoyl]amino]-2-(4-piperidyl)acetate]
< 1000	> 10000	> 10000	≤ 200 nM	O=C(NC1CCCNC1)c1ccc(-c2c[nH]c3cc(F)ccc23)cc1 (centres unmarked) [Example 118, 4-(6-Fluoro-1H-indol-3-yl)-N-(3-piperidyl)benzamide]
< 1000	5000 to 10000	5000 to 10000	≤ 500 nM and 200 to 500 nM	O=C(NCC(F)(F)F)c1c(F)cc(-c2c[nH]c3cc(F)ccc23)cc1F [Example 57, 2,6-Difluoro-4-(6-fluoro-1H-indol-3-yl)-N-(2,2,2-trifluoroethyl)benzamide]
